In patent US8366935B2, “Phyllanthus extract” (Phytrix Inc., priority 2008, dated 2013):

target: T1, gp120 (Human immunodeficiency virus type 1 group M subtype B, UniProt P03375); experiment: biochemical; type: binding, HIV
T1 construct: loaded with 25 μl of 6 mg/ml of gp120 (25 μM) in PBS pH 7.2
Description: If needed, experiments were repeated within a smaller concentration range (i.e., 10 trials from 0.01 to 0.10 mmol). A total volume of either 50 μl was used in each analysis. Analytes were loaded in the opposite side of the membrane and equilibrium was obtained after incubation of 12 hrs at 23° C. The association constants were determined by non-linear regression analysis. Concentrations of compounds analysed were determined by HPLC analysis by comparison against an internal control (diethyl-7-dimethylaminocoumarineacetamide). HPLC controls were run with an equimolar amount of control and analyte. The relative concentrations of each analyte were determined at both sides of the membrane. […] Each data point was recollected after regeneration of the dialysis setup by exposing the non-protein containing face of the membrane to 5 ml of PBS pH 7.2 twice for 4 to 10 hrs at 23° C.

SMILES	Kd
O=C(O[C@@H]1O[C@@H]2COC(=O)c3cc(O)c(O)c(O)c3-c3c(cc(O)c(O)c3O)C(=O)O[C@H]([C@H]1O)[C@@H]2O)c1cc(O)c(O)c(O)c1 [Corilagin]	120 nM
O=C(O)c1cc(O)c(O)c(O)c1 [Gallic acid]	≥ 100000 nM
O=C1O[C@H]2[C@@H]3OC(=O)c4cc(O)c(O)c(O)c4-c4c(cc(O)c(O)c4O)C(=O)OC[C@H]2O[C@@H](OC(=O)c2cc(O)c(O)c(O)c2)[C@@H]3OC(=O)c2cc(O)c(O)c3c2[C@@H]2C1=CC(=O)[C@](O)(O3)C2(O)O [Geraniin]	76 nM
Cc1c(O)c(O)cc2c1C(/C(=C/C(=O)O)C(=O)OC1C3COC(=O)c4cc(O)c(O)c(O)c4-c4c(cc(O)c(O)c4O)C(=O)OC1C(O)C(OC(=O)c1cc(O)c(O)c(O)c1)O3)C(C(=O)O)OC2=O (stereo not shown) [Repandusinic acid]	22 nM
